US20090202439A1, “Methods for treatment of angiogenesis” (The Johns Hopkins University, priority 2004, published 2009)
Like-named read-outs stand apart in the source and are kept apart here.

Assays:
PECAM-1 [1] = experiment: PECAM-1 protein expression by Western immunoblot in HUVECs; format: cell-based, human; conditions: for bypass of inhibitory effect of D-PDMP on VEGF induced PECAM-1 protein expression: HUVECs treated with D-PDMP, then lipid; for PECAM-1 expression induced by lipid: 2.5 μM for 4 hrs; for VEGF/LacCer induced PECAM-1: HUVECs pre-treated with NAC, DPI or PDTC; for reversal of inhibitory effect of PPMP on VEGF induced PECAM-1 expression: PPMP 90 min, then lipid 2.5 μM 4 hrs, GlcCer to a lesser extent than LacCer
Procedure: Cell Culture—Human umbilical vein endothelial cells (HUVEC) and endothelial cells growth medium EGM™ were purchased from Cambrex, (Walkersville, Md.) and were cultured in EGM™ medium supplemented with 10% fetal bovine serum (FBS).
Western Immunoblot Analysis—[…] of protein was resolved by 10% SDS-PAGE and then transferred to nitrocellulose membrane. The membrane-bound primary antibodies were visualized by horseradish peroxidase-conjugated secondary antibody using chemiluminescence kit. The films were then densitometrically scanned using Molecular Dynamics Image Scanner and analyzed using Image Quant software.

HUVECs = experiment: In vitro angiogenesis/tube formation assay in HUVECs; format: cell-based, human; conditions: for bypass of inhibitory effect of D-PDMP on VEGF induced angiogenesis: HUVECs treated with D-PDMP, then lipid; for reversal of inhibitory effect of PPMP on VEGF induced angiogenesis: then lipid 2.5 μM 4 hrs, GlcCer to a lesser extent than LacCer
Procedure: (§1) In vitro angiogenesis/tube formation assay—In vitro angiogenesis assay was performed using a commercially available kit from Chemicon Inc (Temecula, Calif.).

LacCer synthase = conditions: previously shown; cited from earlier work
HUVEC = experiment: Apoptosis in HUVEC; format: cell-based, human; conditions: D-PDMP 20 μM up to 4-6 hrs, HUVEC (data not shown)
GbOse3Cer = GbOse3Cer synthesis in HUVECs; format: cell-based, human; conditions: cells treated with VEGF, with and without D-PDMP (data not shown)
GlcCer = conditions: HUVECs
PECAM-1 [2] = experiment: PECAM-1 mRNA expression by real-time RT-PCR in HUVECs; format: cell-based, human
NF-κB = experiment: Cytosolic NF-κB expression in HUVECs; format: cell-based, human; conditions: HUVECs pre-treated with NAC, DPI or PDTC
GalT-V [3] = experiment: LacCer synthase (GalT-V) enzyme activity in siRNA transfected HUVECs; format: cell-based, human; conditions: siRNA 100 nM, compared with scrambled siRNA treated cells
Procedure: (C) HUVECs were transfected with either scrambled GalT-V siRNA (100 nM) or GalT-V siRNA (100 nM). 48 hrs post transfection, cells were lysed and Cer synthase enzyme activity was performed as described in “Materials and Methods”. […] HUVECs were transfected with siRNA duplexes using Oligofectamine (Invitrogen), following protocol supplied by the manufacturer.

GalT-V [4] = experiment: GalT-V protein expression by immunoblot in siRNA transfected HUVECs; format: cell-based, human; conditions: siRNA duplex 100 nM, 48 hrs after transfection
Procedure: Next, 48 hrs after transfection cells were harvested lysed, and GalT-V protein levels were analyzed by immunoblot probed with GalT-V antibody or b-actin, as shown in the figure. GalT-V expression was expressed as % control, when normalized with b-actin expression and the relative quantification values are shown below the immunoblot. (C) HUVECs were transfected with either scrambled GalT-V siRNA (100 nM) or GalT-V siRNA (100 nM). […] The data shown is representative of two identical experiments yielding similar result. […] HUVECs were transfected with siRNA duplexes using Oligofectamine (Invitrogen), following protocol supplied by the manufacturer. Western Immunoblot Analysis-25 g of protein was resolved by 10% SDS-PAGE and then transferred to nitrocellulose membrane. The membrane-bound primary antibodies were visualized by horseradish peroxidase-conjugated secondary antibody using chemiluminescence kit. The films were then densitometrically scanned using Molecular Dynamics Image Scanner and analyzed using Image Quant software.

REN (mt-rhPECAM-1) = experiment: In vitro angiogenesis assay in REN cells transfected with human PECAM-1 gene; format: cell-based; conditions: REN transfected with human PECAM-1 gene, VEGF 25 ng/ml or LacCer 4 hrs, compared with control
Procedure: (§2) REN (WT) [A] were either stimulated with VEGF (25 ng/ml) [B]; LacCer (2.5 μM) [C] or REN (rhPECAM-1) [D] with VEGF (25 ng/ml) (E) or LacCer [F] for 4 hrs and then in vitro angiogenesis assays were performed as described earlier. Results shown here are from set of experiments performed in triplicate yielding similar results.
(§3) Cell Culture—Human umbilical vein endothelial cells (HUVEC) and endothelial cells growth medium EGM™ were purchased from Cambrex, (Walkersville, Md.) and were cultured in EGM™ medium supplemented with 10% fetal bovine serum (FBS). Human mesoendothelioma cell line [(REN— wild type (WT)] which lacks endogenous PECAM-1 expression and REN (mt-rhPECAM-1) expressing human PECAM-1 was kindly provided by Dr. Steven Albelda, University of Pennsylvania Medical Center, USA. REN-WT was grown in RPMI 1640 supplemented with 101/&FBS. REN (mtrhPECAM-1) was cultured in the same medium with G418 (0.5 g/L Gibco).
as §1

REN (WT) cells = experiment: In vitro angiogenesis assay in REN (WT) cells lacking PECAM-1; format: cell-based, human; conditions: VEGF 25 ng/ml or LacCer 2.5 μM 4 hrs, compared with 2% FBS treated cells
Procedure: as §2, §3, §1

[5] = D-PDMP 20 μM for 90 min, then VEGF 25 ng/ml
[6] = CC 5.0 μM, GÖ 6850 and 6976 50 nM, BPB 10 μM, MAFP 3.0 μM, compared with vehicle (DMSO)
[7] = cells treated with increasing concentrations of L-PDMP
[8] = HUVECs pretreated with PPMP 20 μM
[9] = VEGF 25 ng/ml 4 hrs, compared to scrambled siRNA transfected cells
[10] = HUVECs, VEGF 30 ng/ml for 4 hrs

Molecule: CCCCCCCCCCCCC/C=C/[C@@H](O)[C@H](CO)NC(C)=O [C2ceramide]
- bypass of inhibitory effect of D-PDMP on VEGF induced PECAM-1 protein expression (PECAM-1 [1]): failed to bypass
- PECAM-1 expression induced by lipid (PECAM-1 [1]; HUVECs): did not induce
- bypass of inhibitory effect of D-PDMP on VEGF induced angiogenesis (HUVECs): failed to bypass

Molecule: CCCCCCCCCC(=O)N[C@H](CN1CCOCC1)[C@H](O)c1ccccc1 [D-PDMP, (1R,2R)-1-phenyl-2-decanoylamino-3-morpholino-1-propanol]
- action on LacCer synthase (LacCer synthase): inhibitor of purified LacCer synthase
- apoptosis (HUVEC): did not induce apoptosis
- VEGF induced LacCer biosynthesis (LacCer; HUVECs pretreated with 20 μM D-PDMP, then VEGF 25 ng/ml): mitigated
- VEGF induced PECAM-1 protein expression (PECAM-1 [1]; [5]): abrogated
- VEGF-induced PECAM-1 expression (PECAM-1 [1]; HUVECs pre-incubated with D-PDMP 10-30 μM, then VEGF 25 ng/ml 4 hrs): concentration-dependent inhibition
- level of GbOse3Cer synthesis (GbOse3Cer): similar
- VEGF induced GlcCer synthesis (GlcCer; D-PDMP 20 μM pretreatment, as early as 10 min): inhibited
- VEGF induced PECAM-1 mRNA expression (PECAM-1 [2]; [5]): abrogated
- VEGF induced angiogenesis (HUVECs; HUVECs, D-PDMP): significantly mitigated

Molecule: c1ccc2c(c1)[I+]c1ccccc1-2 [DPI, diphenylene iodonium]
- VEGF/LacCer induced cytosolic NF-κB expression (NF-κB): significantly blunted
- VEGF/LacCer induced PECAM-1 (PECAM-1 [1]): significantly blunted

Molecule: CN(C)CCCn1cc(C2=C(c3c[nH]c4ccccc34)C(=O)NC2=O)c2ccccc21 [GÖ 6850]
- VEGF/LacCer induced PECAM-1 expression (PECAM-1 [1]; [6]): abrogated
- VEGF/LacCer induced tube formation (HUVECs; [6]): abrogated

Molecule: Cn1c2ccccc2c2c3c(c4c5ccccc5n(CCC#N)c4c21)CNC3=O [GÖ 6976]
- VEGF/LacCer induced PECAM-1 expression (PECAM-1 [1]; [6]): abrogated
- VEGF/LacCer induced tube formation (HUVECs; [6]): abrogated

Molecule: CCCCCCCCCC(=O)N[C@@H](CN1CCOCC1)[C@@H](O)c1ccccc1 [L-PDMP]
- action on LacCer synthase (LacCer synthase): potent activator
- PECAM-1 expression (PECAM-1 [1]; [7]): significantly induced
- angiogenesis (HUVECs; [7]): significantly induced

Molecule: CC(=O)N[C@@H](CS)C(=O)O [NAC, N-Acetyl-L-cysteine]
- VEGF/LacCer induced PECAM-1 (PECAM-1 [1]): significantly blunted

Molecule: S=C(S)N1CCCC1 [PDTC, 1-pyrrolidinecarbodithioicacid]
- VEGF/LacCer induced cytosolic NF-κB expression (NF-κB): significantly blunted
- VEGF/LacCer induced PECAM-1 (PECAM-1 [1]): significantly blunted

Molecule: CCCCCCCCCCCCCCCC(=O)NC(CN1CCOCC1)C(O)c1ccccc1 (centres unmarked) [PPMP]
- VEGF induced PECAM-1 expression (PECAM-1 [1]; [8]): mitigation
- VEGF induced angiogenesis (HUVECs; [8]): mitigation

Molecule: CC(C)c1cc(/C=C(\C#N)C(=O)NCCCc2ccccc2)cc(C(C)C)c1O [SU 1498]
- LacCer induced tube formation/angiogenesis (HUVECs; HUVECs pre-treated with SU 1498 1 hr, then LacCer): not LacCer
- VEGF induced tube formation/angiogenesis (HUVECs; HUVECs pre-treated with SU 1498 1 hr, then VEGF): failed to induce tube formation/angiogenesis

Molecule: GalT-V specific siRNA duplex: siRNA for human GalT-V: 5′-CGG AGU GAG UGG CUU AAC A dTdT-3′ (sense), 5′-UGU UAA GCC ACU CAC UCC G dTdT-3′ (antisense) (sense CGGAGUGAGUGGCUUAACATT; antisense UGUUAAGCCACUCACUCCGTT; chemistry not fully specified)
- PECAM-1 expression in GalT-V silenced cells treated with VEGF (PECAM-1 [1]; [9]): No change
- decrease of GalT-V enzyme activity (GalT-V [3]): ~62%
- angiogenesis in GalT-V silenced cells treated with VEGF (HUVECs; [9]): blunted
- decrease of GalT-V protein expression (GalT-V [4]): ~70%

Molecule: Lactosylceramide [LacCer]
- bypass of inhibitory effect of D-PDMP on VEGF induced PECAM-1 protein expression (PECAM-1 [1]): bypassed
- PECAM-1 expression induced by lipid (PECAM-1 [1]; HUVECs): significantly induced
- reversal of inhibitory effect of PPMP on VEGF induced PECAM-1 expression (PECAM-1 [1]; HUVECs): reversed
- tube formation (REN (mt-rhPECAM-1)): induced tube formation
- bypass of D-PDMP inhibition of PECAM-1 mRNA expression (PECAM-1 [2]; D-PDMP 20 μM 90 min, then VEGF 25 ng/ml and LacCer 2.5 μM 4 hrs): bypassed
- tube formation (REN (WT) cells): failed to form tube-like structures
- reversal of inhibitory effect of PPMP on VEGF induced angiogenesis (HUVECs; HUVECs): reversed
- induction of angiogenesis (HUVECs; HUVECs, independent of presence/absence of D-PDMP and VEGF): significantly induced

Molecule: Vascular endothelial growth factor [VEGF]
- de novo biosynthesis of LacCer (LacCer; HUVECs, VEGF 25 ng/ml, time-dependent, from 10 min): significantly stimulated
- time of maximal PECAM-1 protein expression (PECAM-1 [1]; HUVECs, VEGF 25 ng/ml, various time intervals): 4 h
- PECAM-1 protein expression (PECAM-1 [1]; [10]): maximal
- tube formation (REN (mt-rhPECAM-1)): induced tube formation
- biosynthesis of GlcCer (GlcCer; VEGF 25 ng/ml): stimulated
- time of maximal PECAM-1 mRNA expression (PECAM-1 [2]; HUVECs, VEGF 25 ng/ml, different time points): 4 to 5 h
- PECAM-1 mRNA expression (PECAM-1 [2]; [10]): Maximal
- PECAM-1 mRNA expression (PECAM-1 [2]; HUVECs, VEGF 5-30 ng/ml): dose-dependent increase
- tube formation (REN (WT) cells): failed to form tube-like structures

Molecule: bromophenacyl bromide [BPB]
- VEGF/LacCer induced PECAM-1 expression (PECAM-1 [1]): abrogated
- VEGF/LacCer induced tube formation (HUVECs): abrogated

Molecule: digalactosylceramide [DGDG]
- bypass of inhibitory effect of D-PDMP on VEGF induced PECAM-1 protein expression (PECAM-1 [1]): failed to bypass
- PECAM-1 expression induced by lipid (PECAM-1 [1]; HUVECs): did not induce
- bypass of inhibitory effect of D-PDMP on VEGF induced angiogenesis (HUVECs): failed to bypass

Molecule: glucosylceramide [GlcCer]
- bypass of inhibitory effect of D-PDMP on VEGF induced PECAM-1 protein expression (PECAM-1 [1]): failed to bypass
- PECAM-1 expression induced by lipid (PECAM-1 [1]; HUVECs): did not induce
- reversal of inhibitory effect of PPMP on VEGF induced PECAM-1 expression (PECAM-1 [1]; HUVECs): also reversed
- bypass of inhibitory effect of D-PDMP on VEGF induced angiogenesis (HUVECs): failed to bypass
- reversal of inhibitory effect of PPMP on VEGF induced angiogenesis (HUVECs; HUVECs): also reversed
